Results taken from PubChem BioAssay (NCI).
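Method: 48-hour compound exposure of cells in 96-well plates, five concentrations, linear interpolation of endpoints. The concentration for full growth arrest is given as TGI.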 *1 amine or outer side, *2 acyl side, *3 side chain or, on linkers, in order; H or OH if unused. Where a SMILES comes first, the peptide text is derived from it. [ ]: non-standard residue; d: D form. ξ: configuration not given here. X22 = O=C(C(CC(O)CO)O[*:1])[*:2]; Ile(3ξ) = CCC(C)[C@H](N)C(=O)O; NMeV = CN[C@H](C(=O)O)C(C)C; NMeA = CN[C@@H](C)C(=O)O; βAla = NCCC(=O)O

Assays:
Experiment in all cases: NCI anticancer screen, dose series, 48 h
A549 NSCLC = system: A549 NSCLC
ACHN renal = system: ACHN renal
CAKI-1 renal = system: CAKI-1 renal
COLO 205 colon = system: COLO 205 colon
HCT-15 colon = system: HCT-15 colon
KM12 colon = system: KM12 colon
NCI-H226 lung = system: NCI-H226 lung
RPMI-8226 leukemia = system: RPMI-8226 leukemia
SF-268 CNS = system: SF-268 CNS
SK-MEL-2 melanoma = system: SK-MEL-2 melanoma
SK-MEL-28 melanoma = system: SK-MEL-28 melanoma
SK-MEL-5 melanoma = system: SK-MEL-5 melanoma
SK-OV-3 ovarian = system: SK-OV-3 ovarian
SN12C renal = system: SN12C renal
UACC-62 melanoma = system: UACC-62 melanoma
DU-145 prostate = system: DU-145 prostate
HOP-92 NSCLC = system: HOP-92 NSCLC
NCI/ADR-RES ovarian = system: NCI/ADR-RES ovarian
OVCAR-4 ovarian = system: OVCAR-4 ovarian
MDA-MB-231 breast = system: MDA-MB-231 breast

SMILES | TGI (A549 NSCLC) [µM] | TGI (ACHN renal) [µM] | TGI (CAKI-1 renal) [µM] | TGI (COLO 205 colon) [µM] | TGI (HCT-15 colon) [µM] | TGI (KM12 colon) [µM] | TGI (NCI-H226 lung) [µM] | TGI (RPMI-8226 leukemia) [µM] | TGI (SF-268 CNS) [µM] | TGI (SK-MEL-2 melanoma) [µM] | TGI (SK-MEL-28 melanoma) [µM] | TGI (SK-MEL-5 melanoma) [µM] | TGI (SK-OV-3 ovarian) [µM] | TGI (SN12C renal) [µM] | TGI (UACC-62 melanoma) [µM] | TGI (DU-145 prostate) [µM] | TGI (HOP-92 NSCLC) [µM] | TGI (NCI/ADR-RES ovarian) [µM] | TGI (OVCAR-4 ovarian) [µM] | TGI (MDA-MB-231 breast) [µM]
CSc1nc2nc(C(O)C(O)C(O)CO)cnc2c(=O)[nH]1 (stereo unspecified) | > 100 | > 100 | > 100 | > 100 | > 100 | > 100 | > 100 | > 100 | > 100 | > 100 | > 100 | > 100 | > 100 | > 100 | > 100 | – | – | – | – | –
N#CC1=C(N)OC(c2cccc([N+](=O)[O-])c2)C1(C#N)C#N (stereo unspecified) | 99.6 | 33.2 | 26.6 | 30.7 | 34.3 | – | 94.3 | 47 | 87 | 40.4 | – | 31.8 | > 100 | > 100 | 81.6 | 31.2 | 32.3 | > 100 | – | –
Cc1nc2ccc(N)cc2[nH]c1=O | > 100 | > 100 | > 100 | > 100 | > 100 | > 100 | – | > 100 | – | > 100 | – | > 100 | > 100 | – | > 100 | – | > 100 | – | > 100 | –
N#CC1CCCCC1NC1(C#N)CCCCC1 (stereo unspecified) | > 100 | – | > 100 | > 100 | > 100 | > 100 | > 100 | > 100 | > 100 | > 100 | > 100 | > 100 | > 100 | > 100 | > 100 | – | – | – | – | –
CCOC(=O)C(NC(=O)c1cccc(Cl)c1)(N1CCN(c2cc3c(cc2F)c(=O)c(C(=O)O)cn3C2CC2)CC1)C(F)(F)F (stereo unspecified) | 50.5 | 31 | 36.2 | 30.2 | – | 23.9 | 40.3 | 23.6 | 29.1 | 29.8 | 32.4 | 25.5 | 66.5 | 93.9 | 42.2 | 70.5 | 34.6 | – | 39 | 34.2
COC1=CC(=O)C2C(C1=O)C(c1ccc(Cl)cc1)[C@@H]2C (stereo partly specified) | > 100 | 31.9 | > 100 | > 100 | 31.9 | > 100 | 81.8 | > 100 | 92.7 | > 100 | > 100 | 41.2 | > 100 | – | 63 | – | 54.8 | – | > 100 | –
O=S(=O)(Oc1ccc2ccccc2c1-c1c(OS(=O)(=O)C(F)(F)F)ccc2ccccc12)C(F)(F)F | > 100 | > 100 | > 100 | > 100 | > 100 | > 100 | > 100 | > 100 | > 100 | > 100 | > 100 | > 100 | > 100 | – | > 100 | – | 34.2 | > 100 | > 100 | > 100
CCC(C)[C@@H]1NC(=O)[C@@H]2CCCN2C(=O)C(CC(O)CO)OC(=O)CCNC(=O)[C@H](C)N(C)C(=O)[C@H](C(C)C)N(C)C1=O (stereo partly specified) (cyclo([Ile(3ξ)][NMeV][NMeA][βAla][X22]P)) | > 100 | – | > 100 | > 100 | > 100 | > 100 | > 100 | > 100 | > 100 | > 100 | > 100 | > 100 | > 100 | > 100 | > 100 | – | > 100 | – | > 100 | –
COC(=O)C(Cc1nc2ccccc2[nH]c1=O)C(=O)C(=O)Nc1ccc(F)cc1 (stereo unspecified) | > 100 | > 100 | > 100 | > 100 | > 100 | > 100 | > 100 | – | 56.4 | > 100 | 89.1 | > 100 | > 100 | > 100 | 67.8 | – | 56.4 | – | > 100 | –
COC(=O)/C=C(\C)CC/C=C(\C)CCC(O)C(C)(C)O (stereo unspecified) | > 100 | 75 | 48.5 | 38.3 | 48 | 28.4 | > 100 | – | – | 36.3 | 38.2 | 33.4 | > 100 | 37.5 | 77.9 | – | > 100 | 52.5 | > 100 | > 100
CCOC(=O)CC(NCc1ccc(N=Cc2nc3ccc(C(F)(F)F)cc3nc2-c2ccccc2)cc1)C(=O)OCC (stereo unspecified) | > 100 | > 100 | > 100 | > 100 | > 100 | > 100 | > 100 | > 100 | > 100 | > 73.3 | > 100 | > 100 | > 100 | > 100 | 68.3 | – | > 100 | – | > 100 | –
